The assay addresses RBD domain of the S1 subunit of viral S glycoprotein (Severe acute respiratory syndrome coronavirus 2, UniProt P0DTC2). Put plainly: Binding of the peptides to the RBD domain of viral S glycoprotein (microscale thermophoresis, MST). Further details: species or system SARS-CoV-2. The settings on record: for binding strength compared with the native peptide (1d): RBD domain, comparison with peptide 1d. For orientation: Microscale thermophoresis detects binding through changes in fluorescence in a small temperature gradient.

Ends that are not written are not given here.

What is called Kd is the concentration at which binding is half-saturated.

Turning to `NC(=O)C[C@H](NC(=O)CNC(=O)[C@H](Cc1ccc(O)cc1)NC(=O)[C@@H](N)CC(=O)O)C(=O)N[C@@H](Cc1c[nH]cn1)C(=O)N[C@@H](CCC(=O)O)C(=O)O` [Peptide 2d, DYGNHE], the “binding strength compared with the native peptide (1d)” value was “significantly higher”.

Take `CSCC[C@H](N)C(=O)N[C@@H](Cc1ccc(O)cc1)C(=O)NCC(=O)N[C@@H](CC(N)=O)C(=O)N[C@@H](Cc1c[nH]cn1)C(=O)N[C@@H](CCC(=O)O)C(=O)O` [Peptide J3.2, MYGNHE]: the “binding strength compared with the native peptide (1d)” value was “significantly higher”.

With MYGNYE [Peptide J3.4, MYGNYE], where the note is “peptide-RBD complex, 25° C., cell unit μM, read-out: KD (nM) Tmeasurement 25° C.”, the Kd is greater than 10 µM.

These data come from US20240082341A1, “PEPTIDE FOR USE IN THE TREATMENT OR PREVENTION OF COVID-19” (Instytut Biochemii I Biofizyki Polskiej Akademii Nauk, priority 2020, published 2024).
